Key:
PKR [1] = target: T1, PKR (Rattus norvegicus, UniProt Q63184); assay: PKR phosphorylation in hippocampal slices from mature rats (Western blot); assay type: cell-based
T1 construct: from tissue; host or cells: rat hippocampal slices (400 µm)
T1 sequence (Q63184 1-513): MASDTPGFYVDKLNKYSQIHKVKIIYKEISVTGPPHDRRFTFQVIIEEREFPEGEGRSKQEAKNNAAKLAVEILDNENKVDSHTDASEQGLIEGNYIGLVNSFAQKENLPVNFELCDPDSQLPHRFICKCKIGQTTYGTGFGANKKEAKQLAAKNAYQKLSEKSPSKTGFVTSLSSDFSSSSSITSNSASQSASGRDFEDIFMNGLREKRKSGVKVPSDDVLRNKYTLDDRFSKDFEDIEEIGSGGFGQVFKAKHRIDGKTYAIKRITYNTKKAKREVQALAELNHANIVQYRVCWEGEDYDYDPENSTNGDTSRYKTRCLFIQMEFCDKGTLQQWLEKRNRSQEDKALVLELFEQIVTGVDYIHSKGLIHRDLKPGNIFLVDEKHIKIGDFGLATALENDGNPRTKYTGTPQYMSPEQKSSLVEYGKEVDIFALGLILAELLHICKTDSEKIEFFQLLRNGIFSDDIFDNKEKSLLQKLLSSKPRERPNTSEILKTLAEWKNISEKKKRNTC
Experimental: (§1) In order to test biochemically the ability of C-16 to reduce eIF-2α phosphorylation in the mature brain, C-16 was applied to hippocampal slices from mature rats substantially as described by Kaphzan et al. (2007) Journal of Neurochemistry 103, 388-399 but with modifications as set out below.
(§2) After decapitation the brain was immediately immersed in cold (4° C.) carboxygenated (95% O2, 5% CO2) Artificial Cerebro-Spinal Fluid (ACSF [in mM]: 124 NaCl, 5 KCl, 1.2 MgSO4, 1.2 NaH2PO4, 26 NaHCO3, 10 D-glucose, 2.4 CaCl), and after about 120s both hippocampi were dissected out in a plate filled with cold (4° C.) ACSF on ice. The hippocampi were put on a cooled stand of a Mcllwain tissue chopper TC752 (Campden Instruments Ltd, UK), cut into 400-μm slices, and then put back into a chamber filled with carboxygenated cold (4° C.) ACSF.
(§3) The slices were transferred to a holding chamber for about 20-30 min, to reach room temperature, and were then transferred to a six-chamber pharmacological instrument, designed to our specifications by Scientific Systems Design Company (Ontario, Canada). All of the slices tested in any one experiment (i.e., in all six chambers) were produced by the same procedure from the same rat. The hippocampal slices were heated to 32° C. and were kept in the chamber for 5 h before any pharmacological intervention. Each chamber contained four slices. The slices were perfused with heated and carboxygenated ACSF (with or without 50 μM C-16 (experimental and control groups respectively)) via a Model MP3 peristaltic pump (Gilson, France), at a rate of ˜2 mL min for 10 mins. The chamber space was carboxygenated and humidified. The chamber was an interface type, and the slices were placed upon a lens paper.
(§4) The slices were analysed occasionally for their viability using extracellular recordings of fEPSP in the CA1 region. […]
(§5) The time window of C-16 effect was analysed by Western blot using specific antibodies for phosphorylated and dephosphorylated forms of PKR and eIF-2α. […]

eIF-2α = eIF-2α phosphorylation in hippocampal slices from mature rats (Western blot); assay type: cell-based, rat
Experimental: as §1, §2, §3, §4, §5

rats [2] = assay: Novel taste learning, latent inhibition (LI) paradigm; assay type: in vivo, rat
Experimental: CTA was performed as described earlier (Rosenblum et al., (1993) Behavioral and Neural Biology 59, 49-56). Saccharin (0.1% w/v, sodium salt) or NaCl (0.3%) were used as the unfamiliar taste in training (i.e. the conditioned stimulus (CS)), and injection of LiCl (0.15 m, 2% body weight, i.p.) as the malaise-inducing agent (unconditioned stimulus (UCS)). At the beginning of the behavioral experiment, the rats were trained for 3 days to obtain their daily water ration once a day for 15 min from two pipettes each containing 10 mL of water. On the conditioning day, they were allowed to drink the saccharin solution instead of water from similar pipettes for 15 min, and 50 min later were injected with LiCl. Under these conditions, 2 days after training the conditioned rats preferred water to saccharin in a multiple choice test situation (three pipettes with 5 mL of saccharin each and three with 5 mL of water each), whereas non-conditioned rats preferred saccharin to water. The behavioural data are presented in terms of aversion index, defined as [mL water/(mL water+mL saccharin)] consumed in the test; 0.5 is a chance level, and the higher the aversion index, the more the rats prefer water to the conditioned taste. […]

rats [3] = assay: Weak conditioned taste aversion (CTA); assay type: in vivo, rat
Sprague-Dawly male rats = assay: Odour maze learning (olfactory discrimination, 4-arm radial maze); assay type: in vivo, rat; conditions: i.p. every day, 2 hr before training; day 3 & 6 p<0.05, n=4
Experimental: Subjects and apparatus: Age-matched young adult Sprague-Dawly male rats were used. Prior to training they were maintained on a 23.5 hr water-deprivation schedule, with food available ad libitum. Olfactory discrimination training protocol was performed daily on each trained and pseudo-trained rat in a 4-arm radial maze, as previously described (Cohen-Matsliah et al. (2007) Journal of Neuroscience 27, 12584-12589), with commercial odours that are regularly used in the cosmetics and food industry.
(§6) C-16 was injected i.p. every day, 2 hr before odour maze training. There was 48 hr break between day 3 and 4 without training or injection.
Training: Olfactory training consisted of 20 trials per day for each rat as previously described (Cohen-Matsliah et al. (2007)). In short, in each trial the rat had to choose between two odours (positive- and negative-cue) presented simultaneously. Rats designated to the trained group were rewarded upon choosing the positive cue. The criterion for learning was at least 80% positive-cue choices in the last 10 trials of a training day, as was previously used (Cohen-Matsliah et al. (2007)). Training for a new pair began only after training for the […] pair was completed for all rats.

rats [4] = assay: Contextual fear conditioning (freezing); assay type: in vivo, rat; conditions: i.p. 2 hr before conditioning; tested 24 hours and 10 days later; p<0.05
Excerpt: The entire behavioural procedure took place in the same conditioning chamber containing floor grids and transparent Plexiglas walls. The context of the chamber served as a conditioned stimulus (CS). Rats were placed in the chamber for an approximately two minute adjustment before they were given a foot-shock (0.8 mA for 0.5 sec), which was delivered to the floor bars and served as the unconditioned stimulus (US). The CS-US pairings were given three times. The inter-trial interval was 90-120 seconds throughout. The video images are transferred to a computer (fear-conditioning experiments, control experiment, Dell OptiPlex GXpro) equipped with an analysis program (Image (http://rsb.info.nih.gov/nih-image)) and a macroprogram (P. Schmid, Behavioral Neurobiology Laboratory, Swiss Federal Institute of Technology Zurich). The percentage of changed pixels between two adjacent 1 s images from one of the test boxes was used as a measure of activity. Freezing is commonly identified as cessation of any movement except for respiratory movements. If the percentage of changed pixels between two adjacent 1 s images was <0.05%, this corresponded well to such immobility and the behavior of the rat was scored as “freezing” for the respective second.
C-16 was injected i.p. 2 hr before contextual fear condition. […]

rats [5] = assay: Observation of side effects in rats injected with C-16; assay type: in vivo, rat
Experimental: Conditioned taste aversion and novel taste learning were enhanced.
as §6

PKR [6] = target: PKR (Homo sapiens, UniProt P19525); conditions: by inhibiting the ATP-binding site of PKR; cited from earlier work
PKR (Homo sapiens, UniProt P19525), sequence (P19525 whole entry, the tested form may be a part): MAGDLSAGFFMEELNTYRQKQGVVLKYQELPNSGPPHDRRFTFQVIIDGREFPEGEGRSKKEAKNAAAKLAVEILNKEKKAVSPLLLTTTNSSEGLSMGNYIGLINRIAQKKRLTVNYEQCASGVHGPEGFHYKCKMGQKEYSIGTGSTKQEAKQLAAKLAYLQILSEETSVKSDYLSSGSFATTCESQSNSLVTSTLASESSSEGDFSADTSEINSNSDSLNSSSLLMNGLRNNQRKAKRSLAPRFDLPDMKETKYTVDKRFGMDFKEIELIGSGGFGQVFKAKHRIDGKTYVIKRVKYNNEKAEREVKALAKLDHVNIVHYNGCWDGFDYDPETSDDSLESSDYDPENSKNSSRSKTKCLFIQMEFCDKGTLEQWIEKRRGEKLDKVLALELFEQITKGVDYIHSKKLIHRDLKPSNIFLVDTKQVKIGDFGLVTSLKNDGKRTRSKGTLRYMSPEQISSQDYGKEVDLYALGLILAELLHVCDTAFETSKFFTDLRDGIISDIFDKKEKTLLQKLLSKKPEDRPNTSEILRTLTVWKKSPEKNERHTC

[7] = 50 μM C-16 perfused on hippocampal slices
[8] = time window, Western blot, 1 hr after treatment

What does the source list for `O=C1Nc2ccc3ncsc3c2/C1=C/c1c[nH]cn1` [Compound C-16]?
PKR phosphorylation in the mature hippocampus (FIG. 2) (PKR [1]; [7]): inhibited; time of return of PKR phosphorylation to base line following treatment (PKR [1]; time window, Western blot): 3 to 4 h; C-16 effect on PKR phosphorylation after 1 hr (PKR [1]; [8]): strong effect; eIF-2α phosphorylation in the mature hippocampus (FIG. 3) (eIF-2α; [7]): inhibited; time of return of eIF-2α phosphorylation to base line following treatment (eIF-2α; time window, Western blot): 3 to 4 h; C-16 effect on eIF-2α phosphorylation after 1 hr (eIF-2α; [8]): strong effect; novel taste memory of 0.1% Saccharin (FIG. 8) (rats [2]; 30 min after local microinjection into the gustatory cortex, 50 μM, p<0.05): enhances novel taste memory; novel taste memory of 0.1% Saccharin (FIG. 7) (rats [2]; 2 hr after i.p. application, p<0.01, n=6): enhances novel taste memory; weak CTA (0.05M) to 0.3% NaCl (FIG. 10) (rats [3]; 30 min after local injection into the gustatory cortex, 50 μM, p<0.05): enhances weak CTA; weak Conditioned Taste Aversion (0.05M) to 0.3% NaCl (FIG. 9) (rats [3]; 2 hr after i.p. application, n=8): enhances weak Conditioned Taste Aversion; odour maze learning (FIG. 11) (Sprague-Dawly male rats): enhances odour maze learning; contextual fear condition, average freezing between 4th and 7th minutes (FIG. 12) (rats [4]): enhances contextual fear condition; side effects on repeated i.p. injection (rats [5]; i.p. once a day over a period of more than 7 days, odour maze experiment): without any clear disadvantageous side effect; other effects in taste learning experiments (rats [5]; local and i.p. injection): no other effect that could be measured; PKR kinase activity (PKR [6]): able to inhibit PKR's kinase activity
